The target in experiment [1] is T1, CFTR (Homo sapiens, UniProt P13569). Kind of experiment: Membrane Potential Dye, Enteroid Assay A. Particulars: for EC50: read-out: Ent. A EC50. It is filed as cell-based. The essentials: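 Signal is reported as % Activity relative to a triple CFTR modulator control (3 μM + 3 μM + 300 nM acute). Read-out: membrane potential fluorescence (20 μM methyl oxonol) monitored for 15 min after chloride-free stimulation. Dye loading took 25 min at room temperature in Bath 1 buffer containing CaCC blockers.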
T1 sequence (P13569 with tags, fused parts or gaps DEL508-508): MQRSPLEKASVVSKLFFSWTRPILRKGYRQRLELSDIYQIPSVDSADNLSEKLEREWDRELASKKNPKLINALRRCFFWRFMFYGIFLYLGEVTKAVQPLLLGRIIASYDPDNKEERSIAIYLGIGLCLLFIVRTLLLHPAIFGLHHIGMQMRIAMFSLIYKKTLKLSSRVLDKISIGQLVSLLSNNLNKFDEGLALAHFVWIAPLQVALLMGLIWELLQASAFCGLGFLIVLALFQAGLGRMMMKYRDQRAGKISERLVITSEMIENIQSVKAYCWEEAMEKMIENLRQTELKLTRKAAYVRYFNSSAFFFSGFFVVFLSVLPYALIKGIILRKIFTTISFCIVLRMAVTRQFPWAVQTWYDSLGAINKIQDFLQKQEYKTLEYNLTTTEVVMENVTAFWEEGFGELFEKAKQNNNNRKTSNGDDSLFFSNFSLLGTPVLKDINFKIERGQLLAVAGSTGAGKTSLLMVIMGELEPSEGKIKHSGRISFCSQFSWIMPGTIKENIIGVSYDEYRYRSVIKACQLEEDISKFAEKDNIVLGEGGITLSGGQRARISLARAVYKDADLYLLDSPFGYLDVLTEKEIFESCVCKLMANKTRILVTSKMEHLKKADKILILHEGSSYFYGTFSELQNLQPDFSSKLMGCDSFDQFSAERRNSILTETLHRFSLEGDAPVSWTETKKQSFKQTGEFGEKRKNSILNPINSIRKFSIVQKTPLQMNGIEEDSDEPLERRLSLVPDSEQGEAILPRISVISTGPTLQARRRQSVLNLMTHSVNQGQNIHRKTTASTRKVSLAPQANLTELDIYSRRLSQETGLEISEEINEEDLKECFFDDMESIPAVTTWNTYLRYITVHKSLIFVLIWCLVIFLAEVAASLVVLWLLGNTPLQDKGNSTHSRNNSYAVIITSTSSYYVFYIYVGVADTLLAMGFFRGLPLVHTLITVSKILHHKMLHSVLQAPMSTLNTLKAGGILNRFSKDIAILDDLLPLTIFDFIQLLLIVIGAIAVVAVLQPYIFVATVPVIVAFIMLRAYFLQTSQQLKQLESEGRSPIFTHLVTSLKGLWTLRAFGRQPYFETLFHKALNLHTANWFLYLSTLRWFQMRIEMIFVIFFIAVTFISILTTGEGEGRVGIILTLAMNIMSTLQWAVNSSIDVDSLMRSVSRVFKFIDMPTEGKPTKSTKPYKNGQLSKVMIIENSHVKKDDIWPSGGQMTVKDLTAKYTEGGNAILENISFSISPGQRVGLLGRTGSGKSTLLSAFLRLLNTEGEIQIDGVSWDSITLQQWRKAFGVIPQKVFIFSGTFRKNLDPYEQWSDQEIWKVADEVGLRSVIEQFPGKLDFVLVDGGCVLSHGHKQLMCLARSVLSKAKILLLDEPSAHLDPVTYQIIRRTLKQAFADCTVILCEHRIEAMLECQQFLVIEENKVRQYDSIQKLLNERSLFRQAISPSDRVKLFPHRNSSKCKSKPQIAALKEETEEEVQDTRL

The target of experiment [2] is T1, CFTR. The experiment is described as follows: Membrane Potential Dye, Enteroid Assay B. The experiment is classed as cell-based. The note with it: for EC50: read-out: Ent. B EC50. Here is the method: Base medium (ADF+++) consisted of Advanced DMEM/Ham's F12, 2 mM Glutamax, 10 mM HEPES, […] penicillin/streptomycin.
Bath 1 Buffer consisted of 1 mM MgCl2, 160 mM NaCl, 4.5 mM KCl, 10 mM HEPES, 10 mM Glucose, 2 mM CaCl2).
Chloride Free Buffer consisted of 1 mM Magnesium Gluconate, 2 mM Calcium Gluconate, 4.5 mM Potassium Gluconate, 160 mM Sodium Gluconate, 10 mM HEPES, 10 mM Glucose.
Bath 1 Dye Solution consisted of Bath 1 Buffer, 0.04% Pluronic F127, 20 μM Methyl Oxonol, 30 μM CaCCinh-A01, 30 μM Chicago Sky Blue.
Chloride Free Dye Solution consisted of Chloride Free Buffer, 0.04% Pluronic F127, 20 μM Methyl Oxonol, 30 μM CaCCinh-A01, 30 μM Chicago Sky Blue.
3. Enteroid Cell Harvesting and Seeding
Cells were recovered in cell recovery solution, collected by centrifugation at 650 rpm for 5 min at 4° C., resuspended in TryPLE and incubated for 5 min at 37° C. Cells were then collected by centrifugation at 650 rpm for 5 min at 4° C. and resuspended in IEMM containing 10 μM ROCK inhibitor (RI).
5. Membrane Potential Dye, Enteroid Assay B
Briefly, cells were washed 5 times in Bath 1 Buffer. Bath 1 Dye Solution was added and the cells were incubated for 25 min at room temperature. Following dye incubation, cells were washed 3 times in Chloride Free Dye Solution. Chloride transport was initiated by addition of Chloride Free Dye Stimulation Solution and the fluorescence signal was read for 15 min.

Structures are written as SMILES.

The term EC50 denotes the midpoint of the concentration-response curve. In the case of `Cc1cccc(C)c1-c1cc2nc(n1)NS(=O)(=O)c1cccc(c1)C(=O)NC[C@H](c1ccc(/C=C/C(C)(C)C)cc1)O2` (stereo in doubt) [Compound 150], in experiment [1] (Table 9), the “Ent. A Max Activity” value is “++ (++ is 30-60%)” and the EC50 is below 1000 nM. In experiment [2] (Table 9), the “Ent. B Max Activity” value is on record as “++ (++ is 30-60%)” and the EC50 was below 1000 nM.

For `Cc1cccc(C)c1-c1cc2nc(n1)NS(=O)(=O)c1cccc(c1)C(=O)N[C@@H]1CN(c3ncc(C(F)(F)F)cn3)C[C@H]1O2` [Compound 372], in experiment [1] (Table 9), the “Ent. A Max Activity” value is given as “+++ (+++ is >60%)” and the EC50 was below 1000 nM. In experiment [2] (Table 9), the “Ent. B Max Activity” value is listed as “++ (++ is 30-60%)” and the EC50 is below 1000 nM.

With `Cc1cccc(C)c1-c1cc2nc(n1)NS(=O)(=O)c1cccc(c1)C(=O)NCC(c1ccc([Si](C)(C)C)cc1)O2` (single isomer, unassigned) [Compound 17, 6-(2,6-dimethylphenyl)-2,2-dioxo-10-(4-trimethylsilylphenyl)-9-oxa-2λ^6-thia-3,5,12,19-tetrazatricyclo[12.3.1.14,8]nonadeca-1(18),4(19),5,7,14,16-hexaen-13-one], the EC50 in experiment [1] (Table 9) and in experiment [2] (Table 9) was below 1000 nM throughout.

On to `Cc1cccc(C)c1-c1cc2nc(n1)NS(=O)(=O)c1cccc(c1)C(=O)NC[C@H](c1ccc(/C=C/C(C)(C)C)cc1)O2` (stereo in doubt) [Compound 151], for which, in experiment [1] (Table 9), the “Ent. A Max Activity” value is listed as “+++ (+++ is >60%)” and the half-maximal effective concentration (EC50) was below 1000 nM. For the same compound, in experiment [2] (Table 9), the “Ent. B Max Activity” value is recorded as “+++ (+++ is >60%)” and the EC50 is below 1000 nM.

In the case of `Cc1cccc(C)c1-c1cc2nc(n1)NS(=O)(=O)c1cccc(c1)C(=O)N[C@@H](CC13CC4CC(CC(C4)C1)C3)CO2` (single isomer, unassigned) [Compound 110, 11-(1-adamantylmethyl)-6-(2,6-dimethylphenyl)-2,2-dioxo-9-oxa-2λ^6-thia-3,5,12,19-tetrazatricyclo[12.3.1.14,8]nonadeca-1(18),4(19),5,7,14,16-hexaen-13-one], in experiment [1] (Table 9), the “Ent. A Max Activity” value is “+++ (+++ is >60%)” and the EC50 was below 1000 nM. Also, in experiment [2] (Table 9), the “Ent. B Max Activity” value was “+++ (+++ is >60%)” and the half-maximal effective concentration (EC50) is below 1000 nM.

With `Cc1cccc(C)c1-c1cc2nc(n1)NS(=O)(=O)c1cccc(c1)C(=O)N[C@@H]1CN(C(=O)CC(C)(C)C)C[C@H]1O2` [Compound 381], in experiment [1] (Table 9), the “Ent. A Max Activity” value was “++ (++ is 30-60%)” and the concentration for a half-maximal effect (EC50) fell in the range of 3000 to 30000 nM. Besides, the “Ent. B Max Activity” value in experiment [2] (Table 9) is on record as “++ (++ is 30-60%)”.

`Cc1cccc(C)c1-c1cc2nc(n1)NS(=O)(=O)c1cccc(c1)C(=O)NCC(c1ccc(C3(C(F)(F)F)CC3)cc1)O2` (single isomer, unassigned) [Compound 11, 6-(2,6-Dimethylphenyl)-2,2-dioxo-10-[4-[1-(trifluoromethyl)cyclopropyl]phenyl]-9-oxa-2λ^6-thia-3,5,12,19-tetrazatricyclo[12.3.1.14,8]nonadeca-1(18),4(19),5,7,14,16-hexaen-13-one]: in experiment [1] (Table 8), the “Ent. A Max Activity” value is given as “+++ (+++ is >60%)” and the EC50 is below 1000 nM. Also, in experiment [2] (Table 8), the “Ent. B Max Activity” value is reported as “+++ (+++ is >60%)” and the EC50 is below 1000 nM.

On to `Cc1ccc(C2CNC(=O)c3cccc(c3)S(=O)(=O)Nc3nc(cc(-c4c(C)cccc4C)n3)O2)cc1` (stereo not shown) [Compound 405], for which the EC50 in experiment [1] (Table 8) was below 1000 nM. Further, in experiment [2] (Table 8), the “Ent. B Max Activity” value is given as “++ (++ is 306%)” and the EC50 is below 1000 nM.

As to `Cc1cccc(C)c1-c1cc2nc(n1)NS(=O)(=O)c1cccc(c1)C(=O)N[C@@H]1CN(Cc3ccccc3)C[C@H]1O2` [Compound 383], in experiment [1] (Table 9), the “Ent. A Max Activity” value was “+++ (+++ is >60%)” and the half-maximal effective concentration (EC50) is below 1000 nM. In addition, in experiment [2] (Table 9), the “Ent. B Max Activity” value is “+++ (+++ is >60%)” and the concentration giving a half-maximal response (EC50) is below 1000 nM.

Take `Cc1cccc(C)c1-c1cc2nc(n1)NS(=O)(=O)c1cccc(c1)C(=O)N[C@@H]1CN(C(C)C)C[C@H]1O2` [Compound 375]: in experiment [1] (Table 9), the “Ent. A Max Activity” value is listed as “+++ (+++ is >60%)” and the 50% effective concentration (EC50) was in the range of 3000 to 30000 nM. Further, in experiment [2] (Table 9), the “Ent. B Max Activity” value is reported as “++ (++ is 30-60%)” and the EC50 is 3000 to 30000 nM.

`Cc1cccc(C)c1-c1cc2nc(n1)NS(=O)(=O)c1cccc(c1)C(=O)N[C@@H]1CN(Cc3ccc(C(F)(F)F)cc3)C[C@H]1O2` [Compound 379]: in experiment [1] (Table 9), the “Ent. A Max Activity” value is “+++ (+++ is >60%)” and the EC50 was below 1000 nM. For the same compound, in experiment [2] (Table 9), the “Ent. B Max Activity” value is recorded as “++ (++ is 30-60%)” and the EC50 is below 1000 nM.

As to `Cc1cccc(C)c1-c1cc2nc(n1)NS(=O)(=O)c1cccc(c1)C(=O)N[C@@H]1CN(C3CC4(CCCCC4)C3)C[C@H]1O2` [Compound 377], in experiment [1] (Table 9), the “Ent. A Max Activity” value was “+++ (+++ is >60%)” and the EC50 is below 1000 nM. In addition, in experiment [2] (Table 9), the “Ent. B Max Activity” value is “++ (++ is 30-60%)” and the EC50 is below 1000 nM.

With `Cc1cccc(C)c1-c1cc2nc(n1)NS(=O)(=O)c1cccc(c1)C(=O)NC(C)(CC(C)C)CO2` (stereo not shown) [Compound 177], in experiment [1] (Table 9), the “Ent. A Max Activity” value is on record as “+++ (+++ is >60%)” and the EC50 is below 1000 nM. Besides, in experiment [2] (Table 9), the “Ent. B Max Activity” value is “+++ (+++ is >60%)” and the EC50 is below 1000 nM.

Regarding `CCC(C)(C)C(=O)N1C[C@H]2NC(=O)c3cccc(c3)S(=O)(=O)Nc3nc(cc(-c4c(C)cccc4C)n3)O[C@@H]2C1` [Compound 369], in experiment [1] (Table 9), the “Ent. A Max Activity” value was “+++ (+++ is >60%)” and the EC50 was in the range of 3000 to 30000 nM. Also, the “Ent. B Max Activity” value in experiment [2] (Table 9) is given as “++ (++ is 30-60%)”.

As for `Cc1cccc(C)c1-c1cc2nc(n1)NS(=O)(=O)c1cc(n[nH]1)C(=O)N[C@H](CC(C)C)CO2` [Compound 78, (10R)-15-(2,6-dimethylphenyl)-10-isobutyl-3,3-dioxo-12-oxa-3λ^6-thia-2,5,6,9,16,17-hexazatricyclo[11.3.1.14,7]octadeca-1(17),4(18),6,13,15-pentaen-8-one], in experiment [1] (Table 9), the “Ent. A Max Activity” value is recorded as “++ (++ is 30-60%)” and the EC50 fell in the range of 3000 to 30000 nM. In experiment [2] (Table 9), the “Ent. B Max Activity” value is listed as “++ (++ is 30-60%)” and the EC50 was 3000 to 30000 nM.

On to `Cc1cccc(CC2CC2)c1-c1cc2nc(n1)NS(=O)(=O)c1cccc(c1)C(=O)N[C@H](CC(C)C)CO2` [Compound 107, (11R)-6-[2-(cyclopropylmethyl)-6-methyl-phenyl]-11-isobutyl-2,2-dioxo-9-oxa-2λ^6-thia-3,5,12,19-tetrazatricyclo[12.3.1.14,8]nonadeca-1(18),4(19),5,7,14,16-hexaen-13-one], for which, in experiment [1] (Table 9), the “Ent. A Max Activity” value is listed as “+++ (+++ is >60%)” and the EC50 was below 1000 nM. Besides, in experiment [2] (Table 9), the “Ent. B Max Activity” value is “+++ (+++ is >60%)” and the EC50 was below 1000 nM.

With `Cc1cccc(C)c1-c1cc2nc(n1)NS(=O)(=O)c1cccc(c1)C(=O)N[C@H](C)CO2` [Compound 95, (11R)-6-(2,6-Dimethylphenyl)-11-methyl-9-oxa-2λ^6-thia-3,5,12,19-tetraazatricyclo[12.3.1.14,8]nonadeca-1(17),4,6,8(19),14(18),15-hexaene-2,2,13-trione], the “Ent. A Max Activity” value in experiment [1] (Enteroid Assay A) is on record as “++ (++ is 30-60%)”. In experiment [2] (Enteroid Assay B), the “Ent. B Max Activity” value is given as “++ (++ is 30-60%)” and the EC50 is 3000 to 30000 nM.

Take `Cc1cccc(C)c1-c1cc2nc(n1)NS(=O)(=O)c1cccc(c1)C(=O)N[C@@H]1CN(CCC(C)(C)C)C[C@H]1O2` [Compound 64, (3R,7R)-5-(3,3-Dimethylbutyl)-19-(2,6-dimethylphenyl)-2-oxa-15λ^6-thia-5,8,16,18,21-pentaazatetracyclo[15.3.1.110,14.03,7]docosa-1(20),10(22),11,13,17(21),18-hexaene-9,15,15-trione]: in experiment [1] (Table 9), the “Ent. A Max Activity” value was “+++ (+++ is >60%)” and the EC50 was below 1000 nM. In experiment [2] (Table 9), the “Ent. B Max Activity” value is “++ (++ is 30-60%)” and the EC50 is below 1000 nM.

Turning to `Cc1cccc(C)c1-c1cc2nc(n1)NS(=O)(=O)c1cccc(c1)C(=O)N[C@H](CC(C)C)[C@@H](c1ccc(C(C)(C)C)cc1)O2` (single isomer, unassigned) [Compound 40], in experiment [1] (Table 9), the “Ent. A Max Activity” value is on record as “+++ (+++ is >60%)” and the EC50 was below 1000 nM. In addition, the “Ent. B Max Activity” value in experiment [2] (Table 9) is on record as “+++ (+++ is >60%)”.

With `Cc1cccc(C)c1-c1cc2nc(n1)NS(=O)(=O)c1cccc(c1)C(=O)NC[C@@H](c1ccc(CC(C)(C)C)cc1)O2` [Compound 263], in experiment [1] (Table 9), the “Ent. A Max Activity” value was “+++ (+++ is >60%)” and the EC50 is below 1000 nM. In addition, in experiment [2] (Table 9), the “Ent. B Max Activity” value is “++ (++ is 30-60%)” and the EC50 was below 1000 nM.

Consider `Cc1cccc(C)c1-c1cc2nc(n1)NS(=O)(=O)c1cccc(c1)C(=O)NC[C@H](c1ccc(C(C)(C)C)cc1)O2` (single isomer, unassigned) [Compound 4], for which, in experiment [1] (Table 8), the “Ent. A Max Activity” value is “+ (+ is <30%)” and the EC50 was 3000 to 30000 nM. Moreover, the “Ent. B Max Activity” value in experiment [2] (Table 8) was “+ (+ is <30%)”.

The values above are taken from patent US20230382924A1, “MODULATORS OF CYSTIC FIBROSIS TRANSMEMBRANE CONDUCTANCE REGULATOR” (VERTEX PHARMACEUTICALS INCORPORATED, priority 2020, published 2023).
